Source: US9024005B2, “Nucleic acid complexes” (priority 2010, dated 2015)
Read-outs that look alike come from different tables or passages of the source. {Fluorescein} = fluorescein label

Assays:
[1] = Weissig et al. 2001 S. T. P. Pharma Sci. 11: 91-96, Table I; cited from earlier work
TFD = test: SYBR Green-DNA binding assay: binding of bolasomes to TFDs; settings: at the concentrations used for sC7 bolasomes; 2 μg TFD/ml
Protocol: To determine the proportion of TFDs being bound by the vesicles, a SYBR-green binding assay was used. TFD complexes were formed as described above in Hepes buffer with the adaptation that the buffer contained 5 μl of a 1 in 10 dilution of SYBR Green I dye (Invitrogen, 10,000× stock prepared in DMSO). Fluorescence was measured (λEX 497 nm, λEM 520 nm) to determine how much bolasome needed to be added to quench the binding of SYBR Green to the TFDs.
SYBR-Green I dye binds specifically to double-stranded DNA and, as it does, gives a strong fluorescent signal. By measuring the change in signal in the presence of different concentrations and types of bolasome, it was possible to calculate the minimum amount of bolasome needed to quench the SYBR-Green binding, due to the dye being excluded by the bolasomes. This was achieved by extrapolation from the linear portion of a titration curve that plotted amount of bolasome added to fluorescent signal. […] At these concentrations no quenching was seen by the monomeric C7.

[2] = Weissig et al. (2006) J. Liposome Res. 16: 249-264, cited from earlier work
[3] = Vesicle size distribution of hairpin TFD complexes (Malvern Nanosizer); type: physicochemical; settings: TFD complexes containing hairpin TFD SA SIG and the delivery compound
Protocol: To prepare delivery complexes, 10 mg of compound was suspend in 12.5 ml of 5 mM Hepes pH7.5 (final concentration 0.8 mg/ml) and dissolved by sonication (30×30 s on, 30 s off, on ice at 10μ). Absorbance of the resulting solution was measured at 327 nm to establish an accurate concentration. 12.5 μl delivery compound was mixed with 40 μl 10 μM TFD and 447.5 μl 5 mM Hepes (pH7.5) and sonicated in an ice bath using an MSE 150 Soniprep attached with a microprobe. Thirty cycles of sonication were performed with 30 s on (with 50% power, approximately 10μ) and 30 s off.
The size distributions of the formed vesicles were measured using a Malvern Nanosizer using standard methodology and are set out in Table 3 below: […]

EMRSA-15 = test: Growth assay, TFDs delivered by antibacterial peptides; type: cell-based, S. aureus; settings: for bacterial growth of EMRSA-15, agent alone: TFD alone or Gramicidin alone; for bacterial growth of EMRSA-15, agent alone / bacterial growth of EMRSA-15, TFD with Gramicidin: LB media; for bacterial growth of EMRSA-15, TFD with Gramicidin: 1 μg DB-TFD with 150 ng/ul of Gramicidin; for growth of EMRSA-15, TFD mixed with Buforin II: 96 well plate in vitro assay
Protocol: The following antibacterial peptides were assayed for their ability to deliver TFDs to bacterial cells: Gramicidin, Polymyxin nonapeptide (both purchased from Sigma Aldrich) and Buforin II (Park et al. (2000) Proc. Natl. Acad. Sci. USA 97: 8245-8250). Typically 1 μg of the Sig DB-TFDs and SigScr DB-TFD as described in Example 1 were mixed with between 0.2 and 5 μg of Gramicidin in a total volume of 5 μl 50 mM NaCl. Of this, 1 μl was added to 200 μl of LB broth inoculated with a 1/100 dilution of a glycerol stock of EMRSA-15 at an original density of 0.3 OD (Absorbance at 600 nm) and aliquoted into a well of a 96 well plate. Experiments were performed in triplicate. The plates were incubated at 37° C. with shaking and absorbance readings (at […]) were taken using a plate reader.

[4] = tested on: Staphylococcus aureus EMRSA 16; test: Tissue burden study, mouse sepsis model; type: in vivo; settings: Dwass-Steel-Chritchlow-Fligner, all pairwise comparisons
Protocol: Animals were treated in groups of since mice per treatment group, therefore forty eight animals were used in total for the study. Two 10 ml cultures of Staphylococcus aureus EMRSA 16 were prepared and placed on orbital shaker (220 rpm) overnight at 37° C. The following day, the Staphylococcus aureus EMRSA 16 cultures were removed from shaker, pelleted and washed twice before being resuspended in saline to an OD of 0.132 (1.5×10^8 cfu/ml). This stock solution of Staphylococcus aureus EMRSA 16 was then further diluted 1:1.5 in saline (1×10^8 cfu/ml) i.e. 2.0×10^7 bacteria per mouse.
All forty eight mice were then infected with 0.2 ml of the 1.0×10^8/ml suspension by intravenous injection into mouse tail vein. The number of Staphylococcus aureus EMRSA 16 bacteria per ml in the remainder of the suspensions after inoculation was also counted to confirm infection load.
Mice were treated 1, 9 and 17 hours post infection with either compound or vehicle, though vancomycin was only administered after 1 h.
After 25 hours post infection, all animals were weighed and then euthanised. […] Organ homogenates were quantitatively cultured onto CLED agar and incubated at 37° C. for up to 3 days and colonies counted. The data from the culture burdens was analysed by the Kruskal-Wallis test using Stats Direct. […]

MRSA strain, EMRSA-15 = test: Fluorescence microscopy of uptake of labelled oligonucleotide; type: cell-based, S. aureus; settings: delivered in Buforin II-derivatised complexes formed with Compound 7; overnight growth
Protocol: Derivatised TFD complexes were formed as described, with the exception that the TFD was substituted with a fluorescently labelled oligonucleotide, Tef, that contained a fluorescein dye at the 5′ end. The sequence of the oligonucleotide was:
The derivatised complexes are added to 200 μl of LB broth inoculated with the MRSA strain, EMRSA-15, and grown overnight with shaking at 37° C. The following morning, cells were harvested by centrifugation and washed four times in an equal volume of PBS. A drop of the bacterial suspension was placed on a microscope slide and air dried. Cells were then heat-fixed by passing the slide through a Bunsen flame. The slide was then flooded with a solution of Loeffler's methylene blue (5 mg/ml methylene blue in 69:30:1 (v/v) solution of water:methanol: 1% (w/v) KOH) and allowed to stand for 1 min, after which the excess solution was washed off with water and the cells visualised using a Cairn CCD Fluorescence Microscope.

Nc1c2c([n+](CCCCCCCCCC[n+]3c4c(c(N)c5ccccc53)CCCC4)c3ccccc13)CCCC2.[Cl-].[Cl-] [Compound 7, 10,10′-(decane-1,10-diyl)bis(9-amino-1,2,3,4-tetrahydroacridinium)dichloride]
published size distribution of the vesicles [1]: 169 nm
quenching of SYBR-Green binding (TFD): no quenching
in vitro toxicity compared to dequalinium [2]: less in vitro toxicity than dequalinium
in vitro toxicity compared to dequalinium ([2]; listed as Compound 7 analogue): lower toxicity in vitro compared to dequalinium
Vesicle size distribution (nm) [3]: 139 +/− 35 nm

Nc1c2c([n+](CCCCCCCCCCCC[n+]3c4c(c(N)c5ccccc53)CCCC4)c3ccccc13)CCCC2.[Cl-].[Cl-] [Compound 7_12, 10,10′-(dodecane-1,12-diyl)bis(9-amino-1,2,3,4-tetrahydroacridinium)dichloride]
Vesicle size distribution (nm) [3]: 117 +/− 32 nm

Cc1cc(N)c2ccccc2[n+]1CCCCCCCCCC[n+]1c(C)cc(N)c2ccccc21 [Dequalinium, reference compound]
Vesicle size distribution (nm) [3]: 75-820 nm

Gramicidin [reference compound]
bacterial growth of EMRSA-15, agent alone (EMRSA-15): grew as well as the untreated control

Sig TFD: transcription factor decoy with S. aureus Sig binding site (SEQ ID NO:9), given alone at 1 nM (TTATTATATACCCATCGAAATAATTTCTAATCTTC; DNA, backbone not given here; further chemistry not fully specified; listed as Staphylococcus aureus)
Kruskal-Wallis pairwise comparison of kidney burden vs Vancomycin [4]: <0.0001
Kruskal-Wallis pairwise comparison of kidney burden vs Vehicle [4]: 0.9203

Tef: fluorescein 5′-labelled oligonucleotide, SEQ ID NO: 52, substitute for the TFD (AGGCGGCCGCGAATTCACTAGTGA; DNA, 5' {Fluorescein}, backbone not given here; listed as Staphylococcus aureus)
uptake of labelled oligonucleotide into bacteria (fluorescence view) (MRSA strain, EMRSA-15): had been internalised

B1: Sig DB-TFD: dumbbell TFD with recognition site for S. aureus alternative sigma protein, SEQ ID NO: 30 and 31 (nucleic acid)
chain 1: CTTGGTTTTTCCAAGGAAGATTAGAAATTATTTCGATGGGTATATAATA
chain 2: CCGTCTTTTTGACGGTATTATATACCCATCGAAATAATTTCTAATCTTC
modifications: DNA, backbone not given here; phosphorylated oligos forming dumbbell with hairpin loops, further chemistry not fully specified
bacterial growth of EMRSA-15, TFD with Gramicidin (EMRSA-15): no bacterial growth
growth of EMRSA-15, TFD mixed with Buforin II (EMRSA-15): prevented growth
bacterial growth of EMRSA-15, agent alone (EMRSA-15): grew as well as the untreated control

B2: scrambled version of the DB-TFD: dumbbell TFD with scrambled Sig binding site, SEQ ID NO: 43 and 44 (nucleic acid)
chain 1: CTTGGTTTTTCCAAGTAGAAAGAAGATTTAGGGCGATTTTATAATATAT
chain 2: CCGTCTTTTTGACGGATATATTATAAAATCGCCCTAAATCTTCTTTCTA
modifications: DNA, backbone not given here; dumbbell decoy with hairpin loops
bacterial growth of EMRSA-15, TFD with Gramicidin (EMRSA-15): grew as well as the untreated control
growth of EMRSA-15, TFD mixed with Buforin II (EMRSA-15): no discernable effect on growth
